Source: article PMC11178805, “Ligand-based design of [^18F]OXD-2314 for PET imaging in non-Alzheimer’s disease tauopathies” (Nature Communications, 2024)
Several values for one entry are separate records, joined by “and”; a condition that tells them apart may be missing. Equal entries are not always repeated.

Tests used:
[1] = target: 3R/4R-tau aggregates in AD tissue (Homo sapiens, UniProt P10636); test: Competition binding vs [^3H]OXD-2314 in AD tissue
Method: Fresh frozen, autopsy-confirmed human PD anterior cingulate cortex brain tissue blocks (1 cm^3) were obtained from Dr. Thomas Beach at Banner/Sun Health AZ with funding from the Michael J. Fox Foundation and contained frequent α-synuclein aggregates and no other detectable aggregated amyloid species. The frozen tissue blocks were prepared for the binding assays as previously described[47],[48], except that equal quantities of the homogenates of three AD brains (AD1-AD3, Table S1) were pooled, as were homogenates from three PSP brains (PSP1-PSP3), three CBD brains (CBD1-CBD3), three Pick’s brains (PiD1-PiD3), and 4 PD brains (PD1-PD4) in order to help minimize the inter-subject variability within the different neuropathological groups. Individual subcortical brain tissues from a PSP subject (PSP4) and a CBD subject (CBD4), as well as with the middle frontal cortex of a control subject, were prepared for the binding assays as previously described[47],[48].
The equilibrium inhibition constant (Ki) values of the unlabeled compounds were determined versus tritium-labeled radioligands using published methods.

[2] = Dynamic brain PET-CT with [^18F]OXD-2314 in rats; assay type: in vivo
Method: Eight rats were used in preclinical PET scans with [^18F]OXD-2314: two for dynamic brain imaging, and six for whole-body biodistribution of radioactivity and dose estimation. Another five rats were used for radiometabolite analysis in brain homogenates and blood plasma. Dynamic PET-CT imaging in healthy wild-type (wt) rats were performed following intravenous administration of [^18F]OXD-2314 (17.9 and 23.8 MBq, n = 2, one female and one male). Radioactivity reached an initial peak of 2.3 standardized uptake value (SUV) within two minutes in whole brain, followed by a steady washout of radioactivity in the brain to below 0.3 SUV at the end of the 120 min acquisition time (Fig. 4). Distribution of radioactivity was homogenous among brain regions, but with the female rat having slower clearance of radioactivity from the brain and thus higher overall brain radioactivity than the male rat.
A total of 8 healthy adult rats (Sprague-Dawley, 384 ± 56 g; 4/4 M/F) underwent PET imaging following bolus injection of [^18F]OXD-2314 (20.5 ± 4.1 MBq), with two animals (M/F) scanned for 120 min with the head in the centre of PET field-of-view (FOV) whereas six animals (3/3 M/F) scanned for 180 min at three bed positions (head-to-bottom) with 15 frames (2×15 s, 2×30 s, 2×60 s, 1×120 s, 1×180 s, 2×240 s, 2×300 s, and 3×600 s) to cover the whole body. PET images were acquired using a nanoScan™ PET/CT scanner (Mediso, Budapest, Hungary) with rats anesthetized under isoflurane in O2 (1.5–2%, 1 L/min) throughout the imaging session and monitored closely for body temperature and respiration rate. […] Normalized cumulated activities of each organ were calculated using trapezoidal integration of the area under the TACs plus extrapolation of the TAC to infinity with natural decay of the radiotracer. […] SUV were calculated by normalizing regional radioactivity for injected radioactivity and body weight.

Chain of 3R/4R-tau aggregates in AD tissue (P10636 623-758 limits assumed): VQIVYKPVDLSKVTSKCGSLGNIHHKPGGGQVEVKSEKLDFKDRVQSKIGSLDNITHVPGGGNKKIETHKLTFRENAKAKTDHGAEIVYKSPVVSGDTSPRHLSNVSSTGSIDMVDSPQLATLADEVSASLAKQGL

COC1CCCN(c2ccc(-c3cc4cc(O)ccc4[nH]3)c(F)n2)C1 (stereo not shown) [OXD-2314, 2-(2-fluoro-6-(3-methoxypiperidin-1-yl)pyridin-3-yl)-1H-indol-5-ol]
Ki [1]: 4.8 ± 0.3 nM

CO[C@H]1CCCN(c2ccc(-c3cc4cc(O)ccc4[nH]3)c([18F])n2)C1 [[^18F]OXD-2314]
ratio initial maximum to late minimum brain radioactivity ([2]; rats): ~ 8
whole brain radioactivity at end of acquisition ([2]; rats, end of the 120 min acquisition): below 0.3 SUV
initial peak whole brain uptake (SUV) ([2]; wild-type rats, i.v., within two minutes, n = 2): 2.3 SUV and > 2 SUV
